Molecules are shown by their SMILES.

The series concerns TC740 cells. Type of series: cell-based. The settings on record: 72 h. As for the experimental part:
The present invention relates to using emodin and RRP to inhibit HIV in an exogenous (however endocellular) environment, in order to attest their anti-HIV effectiveness. More specifically, the invention includes: • 1. Preparing emodin and RRP solutions with various concentrations (70-98% for emodin, and 80-95% for RRP). • 2. Culturing test subjects containing 100 μL of cells using cell incubator under 37° C. and 5% CO2 for 24 hours, forming monolayer on each culture media. • 3. Testing the toxicity of the agents: apply Rheum rhaponticum extractions to the monolayer on culture medium. Maintain the culture media under 37° C. and 5% CO2 for 72 hours, and observe the monolayer for cellular viability. […] These standard concentrations of emodin range between 70% and 98%, and those of RRP range between 80% and 95%. • 4. Testing the anti-HIV effectiveness of emodin and RRP: apply a specific concentration of HIV to those culture medium containing viable cells and already applied with emodin and/or RRP. Observe the viability of cells, and compare them with those in the control groups.
3. Cytotoxicity test: apply an emodin/RRP mixture with a concentration between 1600 μg/mL and 25 μg/mL to the culture medium, and maintain the medium under […] for 72 hours before observing.

For the compound `Cc1cc(O)c2c(c1)C(=O)c1cc(O)cc(O)c1C2=O` [emodin], the “standard concentrations that do not affect the growth of cells” value was 70% and 98%.

The values are drawn from patent US20070264324A1, “Use of Vegetable Anthraquinone Derivatives and Vegetable Polysaccharides For Treating Human Immunodeficiency Virus (HIV)” (priority 2004, published 2007).
